Experimental data as given in patent US10370366B2 (Flatley Discovery Lab, LLC, priority 2013, dated 2019).

Target: T1, human F508del CFTR (Homo sapiens, UniProt P13569, DEL508-508)
T1 construct: expressed in transfected cells; host or cells: Fisher Rat Thyroid (FRT) cells
Assay: CFTR-YFP High Throughput Assay
Type: cell-based
Details: FRT cells expressing human F508del CFTR and YFP; for Emax: EMax normalized to the positive control, read-out: % Efficacy
Procedure, shortened: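 Corrector mode: 24-26 h compound exposure (2 nM-40 μM, 37° C) of FRT cells carrying human F508del CFTR and YFP-H148Q/I152L, followed by washing and 60-120 min RT stimulation with 20 μM forskolin and 30 μM P3. CFTR activity is the least-squares-fitted rate of YFP quenching (Ex 500/Em 540 nm) after iodide addition.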

T1 sequence (P13569 with tags, fused parts or gaps DEL508-508): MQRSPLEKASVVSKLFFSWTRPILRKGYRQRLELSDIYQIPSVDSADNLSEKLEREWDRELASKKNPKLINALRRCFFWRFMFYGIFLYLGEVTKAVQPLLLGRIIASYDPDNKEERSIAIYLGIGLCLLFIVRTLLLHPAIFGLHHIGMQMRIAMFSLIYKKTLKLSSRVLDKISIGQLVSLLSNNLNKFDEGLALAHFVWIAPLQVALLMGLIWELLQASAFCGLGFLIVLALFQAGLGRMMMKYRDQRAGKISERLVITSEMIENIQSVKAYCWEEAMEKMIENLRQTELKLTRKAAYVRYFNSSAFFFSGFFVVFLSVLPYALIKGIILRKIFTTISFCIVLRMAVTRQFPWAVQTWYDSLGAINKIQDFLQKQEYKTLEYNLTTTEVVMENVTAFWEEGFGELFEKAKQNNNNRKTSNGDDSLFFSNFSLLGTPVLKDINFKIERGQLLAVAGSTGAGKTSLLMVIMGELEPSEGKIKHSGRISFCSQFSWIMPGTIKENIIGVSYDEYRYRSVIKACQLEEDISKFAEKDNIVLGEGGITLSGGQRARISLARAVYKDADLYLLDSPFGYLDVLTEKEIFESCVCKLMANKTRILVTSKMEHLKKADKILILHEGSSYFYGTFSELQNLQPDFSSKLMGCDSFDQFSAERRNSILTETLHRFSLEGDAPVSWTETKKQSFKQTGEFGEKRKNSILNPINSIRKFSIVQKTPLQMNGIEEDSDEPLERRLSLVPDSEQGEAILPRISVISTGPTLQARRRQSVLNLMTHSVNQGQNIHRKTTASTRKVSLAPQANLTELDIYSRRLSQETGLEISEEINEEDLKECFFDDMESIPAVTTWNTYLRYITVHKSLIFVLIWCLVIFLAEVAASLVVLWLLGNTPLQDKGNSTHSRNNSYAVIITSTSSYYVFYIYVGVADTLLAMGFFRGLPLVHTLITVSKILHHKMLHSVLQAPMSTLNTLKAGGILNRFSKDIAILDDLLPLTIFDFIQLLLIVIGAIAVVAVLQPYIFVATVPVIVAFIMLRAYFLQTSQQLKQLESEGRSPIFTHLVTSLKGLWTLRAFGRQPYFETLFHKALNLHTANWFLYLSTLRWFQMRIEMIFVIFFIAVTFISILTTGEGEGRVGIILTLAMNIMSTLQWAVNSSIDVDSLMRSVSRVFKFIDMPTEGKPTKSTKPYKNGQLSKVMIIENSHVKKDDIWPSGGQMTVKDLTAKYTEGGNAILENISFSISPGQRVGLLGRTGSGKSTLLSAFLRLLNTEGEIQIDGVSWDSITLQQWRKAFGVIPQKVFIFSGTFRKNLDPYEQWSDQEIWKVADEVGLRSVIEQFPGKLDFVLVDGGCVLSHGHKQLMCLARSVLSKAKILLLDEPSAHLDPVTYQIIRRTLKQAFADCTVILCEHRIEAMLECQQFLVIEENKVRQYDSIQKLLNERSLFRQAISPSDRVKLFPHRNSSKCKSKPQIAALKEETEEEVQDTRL

## CCN(C(=O)Cn1nc(-c2ccc(C(N)=O)cc2)c2ccccc2c1=O)c1ccc2c(c1)OC(F)(F)O2 [Example 19, 4-(3-(2-((2,2-difluorobenzo[d][1,3]dioxol-5-yl)(ethyl)amino)-2-oxoethyl)-4-oxo-3,4-dihydrophthalazin-1-yl)benzamide]
  Emax: > 80%
  EC50: 10 to 20 µM

## CCN(C(=O)Cn1ncc2c(c1=O)c1ccccc1n2Cc1cccnc1)c1ccc2c(c1)OC(F)(F)O2 [Example 140, N-(2,2-difluorobenzo[d][1,3]dioxol-5-yl)-N-ethyl-2-(1-oxo-5-(pyridin-3-ylmethyl)-1H-pyridazino[4,5-b]indol-2(5H)-yl)acetamide]
  Emax: 30 to 80%

## CCOc1cccc2c(Cc3cccnc3)nn(CC(=O)N(CC)c3ccc4c(c3)OC(F)(F)O4)c(=O)c12 [Example 57, N-(2,2-difluorobenzo[d][1,3]dioxol-5-yl)-N-ethyl-2-(8-ethoxy-1-oxo-4-(pyridin-3-ylmethyl)phthalazin-2(1H)-yl)acetamide]
  Emax: 30 to 80%

## CCN(C(=O)c1nn(-c2ccc(Cl)cc2)c(=O)c2c1c1ccccc1n2C)c1ccccc1 [Example 178, 3-(4-chlorophenyl)-N-ethyl-5-methyl-4-oxo-N-phenyl-4,5-dihydro-3H-pyridazino[4,5-b]indole-1-carboxamide]
  Emax: 30 to 80%

## CCN(C(=O)Cn1nc(-c2ccc(S(N)(=O)=O)cc2)c2ccc(OC)cc2c1=O)c1ccc(OC(F)F)cc1 [Example 73, N-(4-(difluoromethoxy)phenyl)-N-ethyl-2-(7-methoxy-1-oxo-4-(4-sulfamoylphenyl)phthalazin-2(1H)-yl)acetamide]
  Emax: 30 to 80%
  EC50: < 10 µM

## CCN(C(=O)c1nn(C)c(=O)c2c1c1ccccc1n2C)c1ccc2c(c1)OC(F)(F)O2 [Example 211, N-(2,2-difluorobenzo[d][1,3]dioxol-5-yl)-N-ethyl-3,5-dimethyl-4-oxo-4,5-dihydro-3H-pyridazino[4,5-b]indole-1-carboxamide]
  Emax: 30 to 80%
  EC50: < 10 µM

## CCN(C(=O)c1nn(-c2ccc(C)cc2)c(=O)c2c1c1ccccc1n2Cc1ccccn1)c1ccccc1 [Example 226, N-ethyl-4-oxo-N-phenyl-5-(pyridin-2-ylmethyl)-3-(p-tolyl)-4,5-dihydro-3H-pyridazino[4,5-b]indole-1-carboxamide]
  Emax: 30 to 80%

## CCN(C(=O)c1nn(-c2ccc(C)cc2)c(=O)c2c1c1sc(C)cc1n2C)c1ccccc1 [Example 245, N-ethyl-2,4-dimethyl-5-oxo-N-phenyl-6-(p-tolyl)-5,6-dihydro-4H-thieno[2′,3′:4,5]pyrrolo[2,3-d]pyridazine-8-carboxamide]
  Emax: 10 to 30%
  EC50: < 10 µM

## CCN(C(=O)Cn1nc(-c2ccc(C(N)=O)cc2)c2ccc(OC)cc2c1=O)c1ccc2c(c1)OC(F)(F)O2 [Example 82, 4-(3-(2-((2,2-difluorobenzo[d][1, 3]dioxol-5-yl)(ethyl)amino)-2-oxoethyl)-6-methoxy-4-oxo-3,4-dihydrophthalazin-1-yl)benzamide]
  Emax: 30 to 80%

## CCN(C(=O)c1nn(-c2ccc(C)cc2)c(=O)c2c1c1ccccc1n2C)c1cccnc1 [Example 157, N-ethyl-5-methyl-4-oxo-N-(pyridin-3-yl)-3-(p-tolyl)-4,5-dihydro-3H-pyridazino[4,5-b]indole-1-carboxamide]
  Emax: 30 to 80%

## CCN(C(=O)Cn1ncc2c([nH]c3ccccc32)c1=O)c1ccc2c(c1)OC(F)(F)O2 [Example 222, N-(2,2-difluorobenzo[d][1, 3]dioxol-5-yl)-N-ethyl-2-(4-oxo-4,5-dihydro-3H-pyridazino[4,5-b]indol-3-yl)acetamide]
  Emax: 30 to 80%
  EC50: > 20 µM

## CCc1ccc(N(CC)C(=O)Cn2nc(Cc3cccnc3)c3ccccc3c2=O)cc1 [Example 25, N-ethyl-N-(4-ethylphenyl)-2-(1-oxo-4-(pyridin-3-ylmethyl)phthalazin-2(1H)-yl)acetamide]
  Emax: 30 to 80%
  EC50: 10 to 20 µM
